Like-named read-outs stand apart in the source and are kept apart here.
Tested on: RF strain of HIV-1 in CEM-SS cells
Experiment: HIV-1 cell protection assay (XTT dye reduction)
Format: cell-based
Conditions: Human immunodeficiency virus 1, CEM-SS, 144 h
Procedure: HIV-1 Cell Protection Assay
The antiviral activities of potential modulator compounds (test compounds) were determined in HIV-1 cell protection assays using the RF strain of HIV-1, CEM-SS cells, and the XTT dye reduction method (Weislow, O. S. et al., J. Natl. Cancer Inst. 81: 577-586 (1989)). Subject cells were infected with HIV-1 RF virus at an moi of 0.025 to 0.819 or mock infected with medium only and added at 2×10^4 cells per well into 96 well plates containing half-log dilutions of test compounds. Six days later, 50 μl of XTT solution (1 mg/ml XTT tetrazolium and […] phenazine methosulfate) were added to the wells and the plates were reincubated for four hours. Viability, as determined by the amount of XTT formazan produced, was quantified spectrophotometrically by absorbance at 450 nm. Data from CPE assays were expressed as the percent of formazan produced in compound-treated cells compared to formazan produced in wells of uninfected, compound-free cells. […] The therapeutic index was calculated by dividing the cytotoxicity (CC50) by the antiviral activity (EC50).

[1] = HIV-1 RF, CEM-SS cells, XTT dye reduction, six days, read-out: EC50

SMILES	EC50 [1]	EC50
CCOCCOCc1cn(Cc2ccc(F)cc2)c2cnc(C(=O)NOC)cc12 [Example 121, 3-[(2-Ethoxyethoxy)methyl]-1-(4-fluorobenzyl)-N-methoxy-1H-pyrrolo[2,3-c]pyridine-5-carboxamide]	512 nM	–
CCONC(=O)c1cc2c(CN(C)CCCN(C)C)cn(Cc3ccc(F)cc3)c2cn1 [Example 116, 3-{[[3-(Dimethylamino)propyl](methyl)amino]methyl}-N-ethoxy-1-(4-fluorobenzyl)-1H-pyrrolo[2,3-c]pyridine-5-carboxamide]	3900 nM	–
CCCN(CCO)Cc1cn(Cc2ccc(F)cc2)c2cnc(C(=O)NOCC)cc12 [Example 115, N-ethoxy-1-(4-fluorobenzyl)-3-{[(2-hydroxyethyl)(propyl)amino]methyl}-1H-pyrrolo[2,3-c]pyridine-5-carboxamide]	3700 nM	–
COCc1cn(Cc2ccc(F)cc2)c2cnc(C(=O)N(C)O)cc12 [Example 122, 1-(4-Fluorobenzyl)-AN-hydroxy-3-(methoxymethyl)-N-methyl-1H-pyrrolo[2,3-c]pyridine-5-carboxamide]	–	242 nM
C=Cc1c(C(=O)NO)ncc2c1ccn2Cc1ccc(F)cc1 [Example 39, 1-(4-Fluorobenzyl)-N-hydroxy-4-vinyl-1H-pyrrolo[2,3-c]pyridine-5-carboxamide]	3.05 nM	–

From patent US7468375B2 (Pfizer Inc., priority 2004, dated 2008)
